Test results reported in patent US12060576B2, “Compositions and methods for producing megakaryocytes” (Stellular Bio, Inc., priority 2018, dated 2024).

What was measured:
[1] = system: PBG1 iPSCs; test: Phase I directed differentiation of PBG1 iPSCs to hemogenic endothelium, immunofluorescence staining of CD31 and CD34; format: cell-based, human; conditions: Laminin 521 matrix, versus control without WNT agonist
Description: FIG. 26A, FIG. 26B, and FIG. 26C depict immunofluorescence microscopy images of Day 6 Phase I cultures on Laminin 521. FIG. 26A depicts a control culture without WNT agonist.

[2] = system: PBG-1 iPSCs; test: Directed differentiation of PBG-1 to preMKs and MKs on a recombinant Laminin-521 matrix compared with Collagen IV, flow cytometry; format: cell-based, human; conditions: 3 days of Phase III (Day 6+6+3); preMKs from Laminin-521 or Collagen IV cultures
Description: FIG. 23A, FIG. 23B, and FIG. 23C depict use of recombinant Laminin 521 to support production and release of megakaryocytic progenitors in Phase II of directed differentiation of PBG1 cells. FIG. 23A depicts representative flow cytometric data from Phase II of PBG1 differentiation cultures utilizing a supportive matrix of 4.2 ug/cm^2 human Collagen IV. FIG. 23B depicts representative flow cytometric data from Phase II of PBG1 differentiation cultures utilizing a supportive matrix of 0.13 ug/cm^2 recombinant human Laminin 521. FIG. 23C depicts the cumulative yields of released preMKs (i.e. viable CD41+CD43+CD14−) per 6-well equivalent (i.e. 2 ml of media, 9.5 cm^2 surface area) between day 6+4 and 6+8 of Phase II directed differentiation cultures initiated with PBG1 iPSCs, utilizing a supportive matrix of 4.2 ug/cm^2 human Collagen IV or 0.13 ug/cm^2 recombinant human Laminin 521.
FIG. 25A and FIG. 25B show flow cytometric subset breakdowns of Phase III (Day 6+6+3) cultures. […] Non-MKs are CD61−, Immature MKs are CD61+CD42a−CD42b−, Apoptotic MKs are CD61+CD42a+CD42b−, and Mature MKs are CD61+CD42a+CD42b+.
Collagen IV is purified from human placental material and is only available as a Research Use Only reagent. […]

[3] = system: PBG1 iPSCs; conditions: 0.6 uM in the first 48 hours of Phase I; Day 6+4; Laminin 521 matrix; versus control

## Cc1c[nH]c(-c2cnc(NCCNc3ccc(C#N)cn3)nc2-c2ccc(Cl)cc2Cl)n1 [CHIR99021]
[1]; 6 uM for the first 48 hours of differentiation only
  Phase I differentiation efficiency at day 6 (CD31 and CD34 staining): dramatic increase

## Laminin-521: recombinant human laminin 521, supportive matrix replacing Collagen IV for directed differentiation
[2]
  Proportion of CD61+ cells co-expressing CD42a and CD42b in Phase III versus Collagen IV: found to be similar

## CHIR98014
[1]; 0.6 uM for the first 48 hours of differentiation only
  Phase I differentiation efficiency at day 6 (CD31 and CD34 staining): dramatic increase
[3]
  Phase II output of preMKs (visual estimation of the number of CD41+ cells): higher output during Phase II
